Measured values from ChEMBL document CHEMBL3779891 (Eur J Med Chem, 2016).
Blank lines part the entries; values can stand above or below the molecule they belong to. Active and inactive are the calls of the source. The rule behind the calls is not given here.

Key:
HepG2 [1] = experiment: Antioxidant activity in human HepG2 cells assessed as decrease in fluorescence level by measuring ratio of micromol of quercetin to 100 umol of compound after 2.5 hrs measured every 5 mins for 1 hr by DCFH-DA staining based fluorescence assay; type: functional; parameters: scale not given: the % may be the effect or the level left
HepG2 [2] = experiment: Antioxidant activity in human HepG2 cells assessed as decrease in fluorescence level after 2.5 hrs measured every 5 mins for 1 hr by DCFH-DA staining based fluorescence assay; type: functional, cell-based
Erythrocyte [3] = experiment: Cytoprotective activity in human erythrocytes assessed as inhibition of AAPH-induced oxidative hemolysis at 100 ug/ml preincubated for 30 mins followed by AAPH induction measured after 2 hrs by spectrophotometric analysis relative to control; type: functional
Erythrocyte [4] = experiment: Cytoprotective activity in human erythrocytes assessed as inhibition of AAPH-induced oxidative hemolysis preincubated for 30 mins followed by AAPH induction measured after 2 hrs by spectrophotometric analysis; type: functional, cell-based
Erythrocyte [5] = experiment: Inhibition of lipid peroxidation in human erythrocytes assessed as reduction in AAPH-induced malondialdehyde formation at 100 ug/ml preincubated for 20 mins followed by AAPH addition measured after 2 hrs by […] relative to untreated control; type: functional
Erythrocyte [6] = experiment: Inhibition of AAPH-induced oxidative hemolysis in human erythrocytes assessed as smooth and round surface at 100 ug/ml preincubated for 20 mins followed by AAPH addition measured after 2 hrs by scanning electron microscopic analysis; type: functional, cell-based
Catalase (Homo sapiens) = target: T1, Catalase (Homo sapiens) (UniProt P04040); experiment: Reduction of catalase activity in human erythrocytes at 100 ug/ml preincubated followed by AAPH addition measured after 2 hrs; type: cell-based; parameters: scale not given: the % may be the effect or the level left
T1 sequence (whole entry): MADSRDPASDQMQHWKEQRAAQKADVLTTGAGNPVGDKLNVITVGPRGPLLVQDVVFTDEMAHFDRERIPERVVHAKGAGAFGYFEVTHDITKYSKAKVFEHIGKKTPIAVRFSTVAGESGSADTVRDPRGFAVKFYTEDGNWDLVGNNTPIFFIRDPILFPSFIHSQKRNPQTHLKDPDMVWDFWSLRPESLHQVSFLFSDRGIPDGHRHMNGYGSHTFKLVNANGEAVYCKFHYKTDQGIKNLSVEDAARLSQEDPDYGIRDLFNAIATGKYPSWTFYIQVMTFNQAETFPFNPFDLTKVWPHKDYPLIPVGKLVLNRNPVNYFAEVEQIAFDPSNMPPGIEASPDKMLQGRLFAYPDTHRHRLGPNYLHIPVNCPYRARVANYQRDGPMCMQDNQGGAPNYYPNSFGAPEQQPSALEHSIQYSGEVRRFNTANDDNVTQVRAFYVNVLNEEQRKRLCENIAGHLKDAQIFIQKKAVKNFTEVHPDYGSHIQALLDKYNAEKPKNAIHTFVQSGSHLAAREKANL

[7] = target: Superoxide dismutase [Cu-Zn] (Homo sapiens) (UniProt P00441); experiment: Induction of superoxide dismutase activity in human erythrocytes at 100 ug/ml preincubated followed by AAPH addition measured after 2 hrs; type: cell-based
Superoxide dismutase [Cu-Zn] (Homo sapiens), sequence (P00441 whole entry): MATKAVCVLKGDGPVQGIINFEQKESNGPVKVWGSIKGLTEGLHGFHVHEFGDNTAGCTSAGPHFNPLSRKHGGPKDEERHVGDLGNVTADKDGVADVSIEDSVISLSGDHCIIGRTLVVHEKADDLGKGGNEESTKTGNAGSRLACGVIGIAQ

Homo sapiens = organism: Homo sapiens; experiment: Induction of glutathione peroxidase activity in human erythrocytes at 100 ug/ml preincubated followed by AAPH addition measured after 2 hrs; type: cell-based
HepG2 [8] = experiment: Antioxidant activity in human HepG2 cells assessed as decrease in AAPH-induced ROS level at 100 ug/ml preincubated for 2 hrs followed by AAPH addition by DCFH-DA staining based microplate fluorometric analysis relative to control; type: functional; parameters: scale not given: the % may be the effect or the level left
A549 [9] = experiment: Antiproliferative activity against human A549 cells assessed as reduction in cell survival after 48 hrs by MTT assay; type: functional, cell-based
HeLa [10] = experiment: Antiproliferative activity against human HeLa cells assessed as reduction in cell survival after 48 hrs by MTT assay; type: functional, cell-based
SGC-7901 = experiment: Antiproliferative activity against human SGC7901 cells assessed as reduction in cell survival after 48 hrs by MTT assay; type: functional, cell-based
MCF7 [11] = experiment: Antiproliferative activity against human MCF7 cells assessed as reduction in cell survival after 48 hrs by MTT assay; type: functional, cell-based
A549 [12] = experiment: Antiproliferative activity against human A549 cells assessed as cell survival at 100 ug/ml after 48 hrs by MTT assay relative to control; type: functional; conditions: A549, 48 h, read-out: Survival
HeLa [13] = experiment: Antiproliferative activity against human HeLa cells assessed as cell survival at 100 ug/ml after 48 hrs by MTT assay relative to control; type: functional; conditions: read-out: Survival
[14] = Antiproliferative activity against human SGC7901 cells assessed as cell survival at 100 ug/ml after 48 hrs by MTT assay relative to control; type: functional; conditions: SGC-7901, 48 h, read-out: Survival
MCF7 [15] = experiment: Antiproliferative activity against human MCF7 cells assessed as cell survival at 100 ug/ml after 48 hrs by MTT assay relative to control; type: functional; conditions: MCF7, 48 h, read-out: Survival
MCF7 [16] = experiment: Induction of apoptosis in human MCF7 cells assessed as nuclear morphological deformity at 500 ug/ml after 12 hrs by scanning electron microscopic analysis; type: functional, cell-based
MCF7 [17] = experiment: Induction of apoptosis in human MCF7 cells assessed as chromatin condensation at 500 ug/ml after 12 hrs by scanning electron microscopic analysis; type: functional, cell-based
MCF7 [18] = experiment: Induction of apoptosis in human MCF7 cells assessed as cell shrinkage at 500 ug/ml after 24 hrs by scanning electron microscopic analysis; type: functional, cell-based
MCF7 [19] = experiment: Induction of apoptosis in human MCF7 cells assessed as cytoplasm overflow at 500 ug/ml after 24 hrs by scanning electron microscopic analysis; type: functional, cell-based
MCF7 [20] = experiment: Induction of apoptosis in human MCF7 cells assessed as morphological deformity at 500 ug/ml after 48 hrs by scanning electron microscopic analysis; type: functional, cell-based
MCF7 [21] = experiment: Induction of apoptosis in human MCF7 cells assessed as plasma membrane blebbing at 500 ug/ml after 48 hrs by scanning electron microscopic analysis; type: functional, cell-based
MCF7 [22] = experiment: Induction of apoptosis in human MCF7 cells assessed as apoptotic bodies at 500 ug/ml after 48 hrs by scanning electron microscopic analysis; type: functional, cell-based
MCF7 [23] = experiment: Induction of apoptosis in human MCF7 cells assessed as morphological changes at 500 ug/ml by scanning electron microscopic analysis; type: functional, cell-based; conditions: TDE = time-dependent effect
MCF7 [24] = experiment: Induction of apoptosis in human MCF7 cells assessed as chromatin hypercondensation at 25 to 100 ug/ml after 48 hrs by Hoechst 33258 staining based fluorescence microscopic analysis; type: functional, cell-based
MCF7 [25] = experiment: Induction of apoptosis in human MCF7 cells assessed as mitochondrial membrane potential loss at 100 ug/ml after 48 hrs by JC-1 staining based fluorescence microscopic analysis; type: functional, cell-based

Compound: O=c1c(O)c(-c2cc(O)c(O)c(O)c2)oc2cc(O)cc(O)c12 [MYRICETIN]
- Activity (HepG2 [1]): 36.8%

Compound: O=c1c(O)c(-c2ccc(O)c(O)c2)oc2cc(O)cc(O)c12 [QUERCETIN]
- EC50 (HepG2 [2]): 4.63 µmol

Compound: O=c1cc(-c2ccc(O)c(O)c2)oc2cc(O)cc(O)c12 [LUTEOLIN]
- Activity (HepG2 [1]): 32.3%

Compound: O=C(O[C@@H]1Cc2c(O)cc(O)cc2O[C@@H]1c1cc(O)c(O)c(O)c1)c1cc(O)c(O)c(O)c1 [EPIGALOCATECHIN GALLATE]
- Activity (HepG2 [1]): 33.1%

- EC50 (HepG2 [2]): 7.98 µmol
Compound: COc1ccc(-c2cc(=O)c3c(O)cc(O)cc3o2)cc1O [DIOSMETIN]
- Activity (HepG2 [1]): 58%

Compound: O=c1c(O)c(-c2ccc(O)cc2)oc2cc(O)cc(O)c12 [KAEMPFEROL]
- Activity (HepG2 [1]): 59.8%
- Activity (HepG2 [2]): Dose-dependent effect
- EC50 (HepG2 [2]): 7.74 µmol
- inhibition at 100 µg/mL (Erythrocyte [3]): 87.4%
- inhibition (Erythrocyte [4]): Dose-dependent effect
- inhibition at 100 µg/mL (Erythrocyte [5]): 36.5%
- inhibition (Erythrocyte [6]): Active
- Activity (Catalase (Homo sapiens)): < 95.5%
- Activity [7]: inactive
- Activity (Homo sapiens): inactive
- Activity (HepG2 [8]): 88.25%
- Activity (A549 [9]): Dose-dependent effect
- Activity (HeLa [10]): Dose-dependent effect
- Activity (SGC-7901): Dose-dependent effect
- Activity (MCF7 [11]): Dose-dependent effect
- viability at 100 µg/mL (A549 [12]): 60.2%
- viability at 100 µg/mL (HeLa [13]): 57.5%
- viability at 100 µg/mL [14]: 59.2%
- viability at 100 µg/mL (MCF7 [15]): 47.9%
- Activity (MCF7 [16]): Active
- Activity (MCF7 [17]): Active
- Activity (MCF7 [18]): Active
- Activity (MCF7 [19]): Active
- Activity (MCF7 [20]): Active
- Activity (MCF7 [21]): Active
- Activity (MCF7 [22]): Active
- Activity (MCF7 [23]): tde
- Activity (MCF7 [24]): Active
- Activity (MCF7 [25]): Active
